Assay results published in patent US9580463B2 (BRISTOL-MYERS SQUIBB COMPANY, priority 2013, dated 2017).

Assays:
[1] = test system: HCV genotype 1b (Con1) replicon in HUH-7 cells; experiment: HCV replicon luciferase reporter assay, genotype 1b; type: cell-based; settings: Hepatitis C virus, 72 h, genotype 1b replicon, 3 days incubation, read-out: LE_1b (EC50, range)
Outline: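 Twenty-point, threefold compound titrations (0.5% DMSO) were incubated 3 days at 37 °C with 3.0×10^3 HUH-7 cells/well in 4% FCS. The cells stably carried luciferase replicons: genotype 1b Con1 (S1179I) or 1a H77 (NS3 P1496L, NS5A S2204I). Renilla signal was read after 2 h with 7.5 μM EnduRen, and EC50 was taken from a four-parameter logistic fit. Cytotoxicity (CC50) was measured by Cell Titer-Blue, 8 h.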

[2] = test system: HCV genotype 1a (H77 strain) replicon in HUH-7 cells; experiment: HCV replicon luciferase reporter assay, genotype 1a; type: cell-based; settings: Hepatitis C virus, 72 h, genotype 1a replicon, 3 days incubation, read-out: LE_1a (EC50, range)
Description: An HCV replicon whole cell system was established as described by Lohmann V, Korner F, Koch J, Herian U, Theilmann L, Bartenschlager R., Science 285(5424):110-3 (1999) and modified to introduce a luciferase reporter, as first described by Krieger et al (Krieger N, Lohmann V, and Bartenschlager R, J. Virol. 75(10):4614-4624 (2001)). CDNA encoding a humanized form of the Renilla luciferase gene and a linker sequence fused directly to the 3′-end of the luciferase gene were introduced into the replicon construct using an Asc1 restriction site located in core, directly upstream of the neomycin marker gene. The adaptive mutation at position 1179 (serine to isoleucine) was also introduced (Blight K J, Kolykhalov, A A, Rice, C M, Science 290(5498):1972-1974). A stable cell line constitutively expressing this HCV replicon construct was generated by first linearizing plasmid DNAs with ScaI. RNA transcripts were synthesized in vitro using the T7 MegaScript transcription kit (Ambion, Austin, Tex.) according to manufacturer's directions. In vitro transcripts of the cDNA were transfected into the human hepatoma cell line, HUH-7. […] Resulting cell lines were characterized for positive and negative strand RNA production and protein production over time.
A stable HCV replicon luciferase reporter cell line representing the genotype 1a H77 strain (Yanagi M, Purcell R H, Emerson S U, et al. Transcripts from a single full-length cDNA clone of hepatitis C virus are infectious when directly transfected into the liver of a chimpanzee. Proc Natl Acad Sci USA 1997; 94(16):8738-8743) was generated as described previously for the genotype 1b (Con1) replicon luciferase cell line. The replicon construct was modified by introducing mutations were introduced into the genes encoding the NS3 helicase domain (proline replaced by leucine at position 1496) and NS5A (serine to isoleucine at position 2204) to improve replication in cell culture.
HCV replicon luciferase assays were developed to monitor the inhibitory effects of compounds described in the disclosure on HCV genotypes 1a and 1b viral replication. HUH-7 cells, constitutively expressing the HCV replicon, were grown in Dulbecco's Modified Eagle Media (DMEM) (Gibco-BRL) containing 10% Fetal calf serum (FCS) (Sigma) and 1 mg/mL G418 (Gibco-BRL). Compounds were serially diluted 3 folds in DMSO for a twenty-point titration and subsequently transferred to sterile 384-well tissue-culture treated plates (Corning cat #3571). The plates were then seeded with 50 μL of cells at a density of 3.0×10^3 cells/well in DMEM containing 4% FCS (final DMSO concentration at 0.5%). After 3 days incubation at 37° C., cells were analyzed for Renilla Luciferase activity using the EnduRen as substrate (Promega cat #E6485). The EnduRen substrate was diluted in DMEM and then added to the plates to a final concentration of 7.5 μM. The plates were incubated for 2 hrs at 37° C. and then read immediately for 30 seconds with Viewlux Imager (PerkinElmer) using a luminescence program. To assess cytotoxicity of compounds, CC50 values were generated by multiplexing the EnduRen-containing plates with Cell Titer-Blue (Promega, cat # G8082). Cell-Titer Blue (3 μL) was added to each well and incubated for 8 hrs at 37° C. The fluorescence signal from each well was read, with an excitation wavelength at 525/10 nm and an emission wavelength of 598/10 nm, using the Viewlux Imager.
The EC50 values for compounds were calculated by using a four-parameter logistic equation: y=A+((B−A)/(1+((C/x)^D))), where A and B denotes minimal and maximal % inhibition, respectively, C is the EC50, D is the hill slope and x represents compound concentration.

| SMILES | EC50 [1] [nM] | EC50 [2] [nM] |
| --- | --- | --- |
| COC[C@@H]1CCCC/C=C\[C@@H]2C[C@@]2(C(=O)NS(=O)(=O)C2(C)CC2)NC(=O)[C@@H]2C[C@@H](Oc3ncc(OC)c4ccccc34)CN2C(=O)[C@H]1NC(=O)OC(C)(C)C [Compound 1007, tert-butyl ((2R,6S,7R,13aS,14aR,16aS,Z)-2-((4-methoxyisoquinolin-1-yl)oxy)-7-(methoxymethyl)-14a-(((1-methylcyclopropyl)sulfonyl)carbamoyl)-5,16-dioxo-1,2,3,5,6,7,8,9,10,11,13a,14,14a,15,16,16a-hexadecahydrocyclopropa[e]pyrrolo[1,2-a][1,4]diazacyclopentadecin-6-yl)carbamate] | 0.51 to 1 | 1.01 to 5 |
| COC[C@@H]1C[C@@H](C)CC/C=C\[C@@H]2C[C@@]2(C(=O)NS(=O)(=O)C2CC2)NC(=O)[C@@H]2C[C@@H](Oc3nccc4cc(OC)ccc34)CN2C(=O)[C@H]1NC(=O)OC(C)(C)C [Compound 1008, tert-butyl ((2R,6S,7R,9S,13aS,14aR,16aS,Z)-14a-((cyclopropylsulfonyl)carbamoyl)-2-((6-methoxyisoquinolin-1-yl)oxy)-7-(methoxymethyl)-9-methyl-5,16-dioxo-1,2,3,5,6,7,8,9,10,11,13a,14,14a,15,16,16a-hexadecahydrocyclopropa[e]pyrrolo[1,2-a][1,4]diazacyclopentadecin-6-yl)carbamate] | 1.01 to 5 | 1.01 to 5 |
| COC[C@@H]1C[C@H](C)CC/C=C\[C@@H]2C[C@@]2(C(=O)NS(=O)(=O)C2CC2)NC(=O)[C@@H]2C[C@@H](Oc3nccc4cc(OC)ccc34)CN2C(=O)[C@H]1NC(=O)OC(C)(C)C [Compound 1009, tert-butyl ((2R,6S,7R,9R,13aS,14aR,16aS,Z)-14a-((cyclopropylsulfonyl)carbamoyl)-2-((6-methoxyisoquinolin-1-yl)oxy)-7-(methoxymethyl)-9-methyl-5,16-dioxo-1,2,3,5,6,7,8,9,10,11,13a,14,14a,15,16,16a-hexadecahydrocyclopropa[e]pyrrolo[1,2-a][1,4]diazacyclopentadecin-6-yl)carbamate] | 1.01 to 5 | 1.01 to 5 |
| COC[C@@H]1C[C@H](C)CC/C=C\[C@@H]2C[C@@]2(C(=O)NS(=O)(=O)C2(C)CC2)NC(=O)[C@@H]2C[C@@H](Oc3ncc(OC)c4ccccc34)CN2C(=O)[C@H]1NC(=O)OC(C)(C)C [Compound 1010, tert-butyl ((2R,6S,7R,9R,13aS,14aR,16aS,Z)-2-((4-methoxyisoquinolin-1-yl)oxy)-7-(methoxymethyl)-9-methyl-14a-(((1-methylcyclopropyl)sulfonyl)carbamoyl)-5,16-dioxo-1,2,3,5,6,7,8,9,10,11,13a,14,14a,15,16,16a-hexadecahydrocyclopropa[e]pyrrolo[1,2-a][1,4]diazacyclopentadecin-6-yl)carbamate] | 0.1 to 0.5 | 0.51 to 1 |
| COC[C@@H]1C[C@@H](C)CC/C=C\[C@@H]2C[C@@]2(C(=O)NS(=O)(=O)C2(C)CC2)NC(=O)[C@@H]2C[C@@H](Oc3ncc(OC)c4ccccc34)CN2C(=O)[C@H]1NC(=O)OC(C)(C)C [Compound 1011, tert-butyl ((2R,6S,7R,9S,13aS,14aR,16aS,Z)-2-((4-methoxyisoquinolin-1-yl)oxy)-7-(methoxymethyl)-9-methyl-14a-(((1-methylcyclopropyl)sulfonyl)carbamoyl)-5,16-dioxo-1,2,3,5,6,7,8,9,10,11,13a,14,14a,15,16,16a-hexadecahydrocyclopropa[e]pyrrolo[1,2-a][1,4]diazacyclopentadecin-6-yl)carbamate] | 1.01 to 5 | 1.01 to 5 |
| COC[C@@H]1C[C@H](C)CC/C=C\[C@@H]2C[C@@]2(C(=O)NS(=O)(=O)C2CC2)NC(=O)[C@@H]2C[C@@H](Oc3ncc(OC)c4ccccc34)CN2C(=O)[C@H]1NC(=O)OC(C)(C)C(F)(F)F [Compound 1012, 1,1,1-trifluoro-2-methylpropan-2-yl ((2R,6S,7R,9R,13aS,14aR,16aS,Z)-14a-((cyclopropylsulfonyl)carbamoyl)-2-((4-methoxyisoquinolin-1-yl)oxy)-7-(methoxymethyl)-9-methyl-5,16-dioxo-1,2,3,5,6,7,8,9,10,11,13a,14,14a,15,16,16a-hexadecahydrocyclopropa[e]pyrrolo[1,2-a][1,4]diazacyclopentadecin-6-yl)carbamate] | 0.1 to 0.5 | 0.51 to 1 |
| COC[C@@H]1C[C@@H](C)CC/C=C\[C@@H]2C[C@@]2(C(=O)NS(=O)(=O)C2CC2)NC(=O)[C@@H]2C[C@@H](Oc3ncc(OC)c4ccccc34)CN2C(=O)[C@H]1NC(=O)OC(C)(C)C(F)(F)F [Compound 1013, 1,1,1-trifluoro-2-methylpropan-2-yl ((2R,6S,7R,9S,13aS,14aR,16aS,Z)-14a-((cyclopropylsulfonyl)carbamoyl)-2-((4-methoxyisoquinolin-1-yl)oxy)-7-(methoxymethyl)-9-methyl-5,16-dioxo-1,2,3,5,6,7,8,9,10,11,13a,14,14a,15,16,16a-hexadecahydrocyclopropa[e]pyrrolo[1,2-a][1,4]diazacyclopentadecin-6-yl)carbamate] | 1.01 to 5 | 1.01 to 5 |
| COC[C@@H]1C[C@H](C)CC/C=C\[C@@H]2C[C@@]2(C(=O)NS(=O)(=O)C2(C)CC2)NC(=O)[C@@H]2C[C@@H](Oc3nccc4cc(OC)ccc34)CN2C(=O)[C@H]1NC(=O)OC(C)(C)C(F)(F)F [Compound 1014, 1,1,1-trifluoro-2-methylpropan-2-yl ((2R,6S,7R,9R,13aS,14aR,16aS,Z)-2-((6-methoxyisoquinolin-1-yl)oxy)-7-(methoxymethyl)-9-methyl-14a-(((1-methylcyclopropyl)sulfonyl)carbamoyl)-5,16-dioxo-1,2,3,5,6,7,8,9,10,11,13a,14,14a,15,16,16a-hexadecahydrocyclopropa[e]pyrrolo[1,2-a][1,4]diazacyclopentadecin-6-yl)carbamate] | 0.51 to 1 | 1.01 to 5 |
| COC[C@@H]1C[C@@H](C)CC/C=C\[C@@H]2C[C@@]2(C(=O)NS(=O)(=O)C2(C)CC2)NC(=O)[C@@H]2C[C@@H](Oc3nccc4cc(OC)ccc34)CN2C(=O)[C@H]1NC(=O)OC(C)(C)C(F)(F)F [Compound 1015, 1,1,1-trifluoro-2-methylpropan-2-yl ((2R,6S,7R,9S,13aS,14aR,16aS,Z)-2-((6-methoxyisoquinolin-1-yl)oxy)-7-(methoxymethyl)-9-methyl-14a-(((1-methylcyclopropyl)sulfonyl)carbamoyl)-5,16-dioxo-1,2,3,5,6,7,8,9,10,11,13a,14,14a,15,16,16a-hexadecahydrocyclopropa[e]pyrrolo[1,2-a][1,4]diazacyclopentadecin-6-yl)carbamate] | 1.01 to 5 | 1.01 to 5 |
